This experiment has as its system SK-LMS-1. In words: relative viability vs DMSO control (72 h) (fraction); higher = more viable cells. Put shortly: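 Plates held 72 h at 37 °C and 5% CO2 contained sarcoma cell lines seeded in 384-well format to reach 80–90% confluence, plus 2.5 µl of serially diluted compound added after 24 h. Source plate concentrations ran from 10 mM to 0.0002 mM, with 0.1% DMSO as vehicle and a 5 µM positive control. Percent growth from ATPLite readings, averaged over up to triplicate wells, gave relative viability. Values were rescaled with 1 as full and 0 as none.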

Experimental findings from the supplement of paper PMC10883282 are described below.

Structures are written as SMILES. ± gives the standard deviation of the averaged measurements.

`C[C@]1(O)C[C@@H](c2nc(-c3ccc4ccc(-c5ccccc5)nc4c3)c3c(N)nccn32)C1` [Linsitinib]: the relative viability reads like this: (0.00017 µM) 1.04 ± 0.02; (0.00051 µM) 1.07 ± 0.022; (0.00152 µM) 1.05 ± 0.067; (0.00457 µM) 1.07 ± 0.025; (0.01372 µM) 1.04 ± 0.022; (0.04115 µM) 1.01 ± 0.025. For the same compound, the relative viability (0.1235 µM) was 1.01 ± 0.034; the relative viability (0.3704 µM) came to 1.03 ± 0.019; the relative viability (1.111 µM) stood at 1.01 ± 0.026; the relative viability (3.333 µM) is 0.938 ± 0.011; the relative viability (10 µM) was determined as 0.71 ± 0.027.

As to `C=CC(=O)N1CCC([C@@H]2CCNc3c(C(N)=O)c(-c4ccc(Oc5ccccc5)cc4)nn32)CC1` [Zanubrutinib], the relative viability by setting is: (0.00017 µM) 0.996 ± 0.023; (0.00051 µM) 1.04 ± 0.055; (0.00152 µM) 1.03 ± 0.05; (0.00457 µM) 1.051 ± 0.0069; (0.01372 µM) 1.01 ± 0.06; (0.04115 µM) 1.05 ± 0.015. Further, the relative viability runs as follows: (0.1235 µM) 1.03 ± 0.025; (0.3704 µM) 1.08 ± 0.021; (1.111 µM) 1.06 ± 0.012; (3.333 µM) 1.07 ± 0.012; (10 µM) 1.05 ± 0.04.

As to `Cn1cc(-c2cc3c(N4CCN(c5ncc([C@@](C)(N)c6ccc(F)cc6)cn5)CC4)ncnn3c2)cn1` [Avapritinib], the relative viability turned out to be 0.9488 ± 0.004 (0.00017 µM); 0.959 ± 0.072 (0.00051 µM); 0.999 ± 0.047 (0.00152 µM); 0.989 ± 0.049 (0.00457 µM); 0.973 ± 0.061 (0.01372 µM); 0.978 ± 0.023 (0.04115 µM). For the same compound, the relative viability amounted to 0.9338 ± 0.0068 (0.1235 µM); 0.911 ± 0.012 (0.3704 µM); 0.877 ± 0.03 (1.111 µM); 0.7843 ± 0.0066 (3.333 µM); 0.829 ± 0.026 (10 µM).

As to `CC(=O)Nc1cccc(-n2c(=O)n(C3CC3)c(=O)c3c(Nc4ccc(I)cc4F)n(C)c(=O)c(C)c32)c1` [Trametinib], the relative viability amounted to 1.01 ± 0.027 (0.00017 µM); 1.02 ± 0.06 (0.00051 µM); 1.06 ± 0.03 (0.00152 µM); 0.905 ± 0.034 (0.00457 µM); 0.575 ± 0.025 (0.01372 µM); 0.399 ± 0.01 (0.04115 µM). Further, the relative viability by setting is: (0.1235 µM) 0.327 ± 0.0053; (0.3704 µM) 0.27 ± 0.0086; (1.111 µM) 0.25 ± 0.0039; (3.333 µM) 0.225 ± 0.0081; (10 µM) 0.193 ± 0.0022.
